Results taken from ChEMBL document CHEMBL1201862, “PubChem BioAssay data set” (2004).
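How tested: cells in 96-well plates exposed to compound for 48 hours at five concentrations. GI50: concentration for 50% inhibition of growth.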 Activity calls are given as the source filed them. Cut-off read from the data, not from the text of the source: active = GI50 up to about 1.1 µM and inactive = higher.

Tests used:
Experiment in all cases: NCI-60 cell line screen, 48 h
[1] = tested on: HCC 2998
[2] = tested on: LOX IMVI
[3] = tested on: MDA-MB-231
[4] = tested on: NCI-H522
[5] = tested on: NCI-H226
[6] = tested on: HCT-116
[7] = tested on: KM12
[8] = tested on: OVCAR-3
[9] = tested on: DU-145
[10] = tested on: RXF 393
[11] = tested on: HOP-92
[12] = tested on: PC-3
[13] = tested on: UO-31
[14] = tested on: A498
[15] = tested on: SK-MEL-28
[16] = tested on: RPMI-8226
[17] = tested on: SW-620
[18] = tested on: UACC-62
[19] = tested on: A549
[20] = tested on: HT-29
[21] = tested on: SF-539
[22] = tested on: EKVX
[23] = tested on: OVCAR-8
[24] = tested on: SK-MEL-5
[25] = tested on: SK-OV-3
[26] = tested on: Malme-3M
[27] = tested on: HCT-15
[28] = tested on: SF-295
[29] = tested on: IGROV-1
[30] = tested on: HOP-62
[31] = tested on: OVCAR-5
[32] = tested on: MDA-N
[33] = tested on: 786-0
[34] = tested on: BT-549
[35] = tested on: SN12C
[36] = tested on: MDA-MB-435
[37] = tested on: OVCAR-4
[38] = tested on: K562
[39] = tested on: TK-10
[40] = tested on: MCF7
[41] = tested on: M14
[42] = tested on: SNB-19
[43] = tested on: HL-60
[44] = tested on: COLO 205
[45] = tested on: NCI-H460
[46] = tested on: UACC-257
[47] = tested on: SK-MEL-2
[48] = tested on: NCI-H23
[49] = tested on: NCI/ADR-RES
[50] = tested on: T47D
[51] = tested on: MOLT-4
[52] = tested on: CCRF-CEM
[53] = tested on: ACHN
[54] = tested on: SF-268
[55] = tested on: CAKI-1
[56] = tested on: SNB-75
[57] = tested on: SR
[58] = tested on: U-251
[59] = tested on: Hs-578T

## COc1ccc(/N=C2\C(=N/c3ccc(OC)cc3)N(c3ccc(N(C)C)cc3)C(=S)N2c2ccc(OC)cc2)cc1
[1]
  GI50: > 100 µM (inactive)
[2]
  GI50: > 100 µM (inactive)
[3]
  GI50: > 100 µM (inactive)
[4]
  GI50: > 100 µM (inactive)
[5]
  GI50: > 100 µM (inactive)
[6]
  GI50: > 100 µM (inactive)
[7]
  GI50: > 100 µM (inactive)
[8]
  GI50: > 100 µM (inactive)
[9]
  GI50: > 100 µM (inactive)
[10]
  GI50: 0.0378 µM (active)
[11]
  GI50: > 100 µM (inactive)
[12]
  GI50: > 100 µM (inactive)
[13]
  GI50: 3.81 µM (inactive)
[14]
  GI50: > 100 µM (inactive)
[15]
  GI50: > 100 µM (inactive)
[16]
  GI50: 0.0532 µM (active)
[17]
  GI50: > 100 µM (inactive)
[18]
  GI50: > 100 µM (inactive)
[19]
  GI50: > 100 µM (inactive)
[20]
  GI50: > 100 µM (inactive)
[21]
  GI50: 0.184 µM (active)
[22]
  GI50: > 100 µM (inactive)
[23]
  GI50: > 37.2 µM (inactive)
[24]
  GI50: > 100 µM (inactive)
[25]
  GI50: > 100 µM (inactive)
[26]
  GI50: > 100 µM (inactive)
[27]
  GI50: > 100 µM
[28]
  GI50: 0.0518 µM (active)
[29]
  GI50: > 100 µM (inactive)
[30]
  GI50: > 64.6 µM (inactive)
[31]
  GI50: > 100 µM (inactive)
[32]
  GI50: > 100 µM (inactive)
[33]
  GI50: 0.767 µM (active)
[34]
  GI50: > 100 µM (inactive)
[35]
  GI50: > 100 µM (inactive)
[36]
  GI50: > 100 µM (inactive)
[37]
  GI50: > 100 µM (inactive)
[38]
  GI50: > 100 µM (inactive)
[39]
  GI50: > 100 µM (inactive)
[40]
  GI50: > 100 µM (inactive)
[41]
  GI50: > 100 µM (inactive)
[42]
  GI50: > 100 µM (inactive)
[43]
  GI50: > 100 µM (inactive)
[44]
  GI50: > 100 µM (inactive)
[45]
  GI50: 10.9 µM (inactive)
[46]
  GI50: > 38 µM (inactive)
[47]
  GI50: > 100 µM (inactive)
[48]
  GI50: > 100 µM (inactive)
[49]
  GI50: > 100 µM (inactive)
[50]
  GI50: > 100 µM (inactive)
[51]
  GI50: 0.0329 µM (active)
[52]
  GI50: > 100 µM (inactive)
[53]
  GI50: > 100 µM (inactive)
[54]
  GI50: > 100 µM (inactive)

## Cn1c(N(CCO)CCO)cnc1[N+](=O)[O-]
[2]
  GI50: > 100 µM (inactive)
[3]
  GI50: > 100 µM (inactive)
[4]
  GI50: > 100 µM (inactive)
[5]
  GI50: > 100 µM (inactive)
[6]
  GI50: > 100 µM (inactive)
[7]
  GI50: > 100 µM (inactive)
[8]
  GI50: > 100 µM (inactive)
[10]
  GI50: > 100 µM (inactive)
[11]
  GI50: > 100 µM (inactive)
[12]
  GI50: > 100 µM (inactive)
[13]
  GI50: > 100 µM (inactive)
[55]
  GI50: > 100 µM (inactive)
[14]
  GI50: > 100 µM (inactive)
[16]
  GI50: > 100 µM (inactive)
[17]
  GI50: > 100 µM (inactive)
[18]
  GI50: > 100 µM (inactive)
[19]
  GI50: > 100 µM (inactive)
[20]
  GI50: > 100 µM (inactive)
[21]
  GI50: > 100 µM (inactive)
[22]
  GI50: > 100 µM (inactive)
[23]
  GI50: > 100 µM (inactive)
[24]
  GI50: > 100 µM (inactive)
[25]
  GI50: > 100 µM (inactive)
[26]
  GI50: > 100 µM (inactive)
[27]
  GI50: > 100 µM
[28]
  GI50: > 100 µM (inactive)
[29]
  GI50: > 100 µM (inactive)
[30]
  GI50: > 100 µM (inactive)
[31]
  GI50: > 100 µM (inactive)
[32]
  GI50: > 100 µM (inactive)
[33]
  GI50: > 100 µM (inactive)
[34]
  GI50: > 100 µM (inactive)
[36]
  GI50: > 100 µM (inactive)
[56]
  GI50: > 100 µM (inactive)
[37]
  GI50: > 100 µM (inactive)
[38]
  GI50: > 100 µM (inactive)
[39]
  GI50: > 100 µM (inactive)
[40]
  GI50: > 100 µM (inactive)
[41]
  GI50: > 100 µM (inactive)
[42]
  GI50: > 100 µM (inactive)
[43]
  GI50: > 100 µM (inactive)
[44]
  GI50: > 100 µM (inactive)
[45]
  GI50: > 100 µM (inactive)
[46]
  GI50: > 100 µM (inactive)
[47]
  GI50: > 100 µM (inactive)
[48]
  GI50: > 100 µM (inactive)
[49]
  GI50: > 100 µM (inactive)
[50]
  GI50: > 100 µM (inactive)
[51]
  GI50: > 100 µM (inactive)
[57]
  GI50: > 100 µM (inactive)
[52]
  GI50: > 100 µM (inactive)
[58]
  GI50: > 100 µM (inactive)
[53]
  GI50: > 100 µM (inactive)
[59]
  GI50: > 100 µM (inactive)
[54]
  GI50: > 100 µM (inactive)
